{
  "source": "the supplement of paper PMC10307832",
  "test_in_all_cases": "relative viability (nuclei count vs DMSO), 5 days (fraction); higher = more cells survive",
  "key": {"CAL-12T": {"tested_on": "CAL-12T", "in_short": "(§1)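 Each reported value is a median over duplicate plates. It expresses relative viability: treated-well nuclei count divided by vehicle-well nuclei count. Lung cancer cell lines in 1536-well plates were dosed by pin tool a day after seeding, alone with one drug or with a fixed anchor-drug dose plus five library-drug doses (not always all listed) in √10 steps, and nuclei were counted after 5 days.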"}, "NCI-H1650": {"tested_on": "NCI-H1650", "in_short": "as §1"}, "NCI-H460": {"tested_on": "NCI-H460", "in_short": "as §1"}, "BEN": {"tested_on": "BEN", "in_short": "as §1"}, "COR-L 105": {"tested_on": "COR-L 105", "in_short": "as §1"}, "PC-14": {"tested_on": "PC-14", "in_short": "as §1"}, "NCI-H661": {"tested_on": "NCI-H661", "in_short": "as §1"}, "LK-2": {"tested_on": "LK-2", "in_short": "as §1"}, "HCC-366": {"tested_on": "HCC-366", "in_short": "as §1"}, "NCI-H3122": {"tested_on": "NCI-H3122", "in_short": "as §1"}, "NCI-H1666": {"tested_on": "NCI-H1666", "in_short": "as §1"}},
  "data": [
    {"compound": "COc1cc2nccc(Oc3ccc(NC(=O)Nc4cc(C)on4)c(Cl)c3)c2cc1OC", "note": "[Tivozanib] + CC(=O)c1c(C)c2cnc(Nc3ccc(N4CCNCC4)cn3)nc2n(C2CCCC2)c1=O [Palbociclib] (partner 0.5 µM)", "values": [
      {"measurement": "relative viability", "setting": "CAL-12T; first compound 0.005 µM", "value": 0.407},
      {"measurement": "relative viability", "setting": "CAL-12T; first compound 0.01581 µM", "value": 0.433},
      {"measurement": "relative viability", "setting": "CAL-12T; first compound 0.05 µM", "value": 0.465},
      {"measurement": "relative viability", "setting": "CAL-12T; first compound 0.1581 µM", "value": 0.224},
      {"measurement": "relative viability", "setting": "CAL-12T; first compound 0.5 µM", "value": 0.402},
      {"measurement": "relative viability", "setting": "NCI-H1650; first compound 0.005 µM", "value": 0.328},
      {"measurement": "relative viability", "setting": "NCI-H1650; first compound 0.01581 µM", "value": 0.304},
      {"measurement": "relative viability", "setting": "NCI-H1650; first compound 0.05 µM", "value": 0.336},
      {"measurement": "relative viability", "setting": "NCI-H1650; first compound 0.1581 µM", "value": 0.389},
      {"measurement": "relative viability", "setting": "NCI-H1650; first compound 0.5 µM", "value": 0.319},
      {"measurement": "relative viability", "setting": "NCI-H460; first compound 0.005 µM", "value": 0.147},
      {"measurement": "relative viability", "setting": "NCI-H460; first compound 0.01581 µM", "value": 0.196},
      {"measurement": "relative viability", "setting": "NCI-H460; first compound 0.05 µM", "value": 0.141},
      {"measurement": "relative viability", "setting": "NCI-H460; first compound 0.1581 µM", "value": 0.22},
      {"measurement": "relative viability", "setting": "NCI-H460; first compound 0.5 µM", "value": 0.209},
      {"measurement": "relative viability", "setting": "BEN; first compound 0.005 µM", "value": 0.508},
      {"measurement": "relative viability", "setting": "BEN; first compound 0.01581 µM", "value": 0.497},
      {"measurement": "relative viability", "setting": "BEN; first compound 0.05 µM", "value": 0.453},
      {"measurement": "relative viability", "setting": "BEN; first compound 0.1581 µM", "value": 0.44},
      {"measurement": "relative viability", "setting": "BEN; first compound 0.5 µM", "value": 0.459},
      {"measurement": "relative viability", "setting": "COR-L 105; first compound 0.005 µM", "value": 0.411},
      {"measurement": "relative viability", "setting": "COR-L 105; first compound 0.01581 µM", "value": 0.436},
      {"measurement": "relative viability", "setting": "COR-L 105; first compound 0.05 µM", "value": 0.433},
      {"measurement": "relative viability", "setting": "COR-L 105; first compound 0.1581 µM", "value": 0.404},
      {"measurement": "relative viability", "setting": "COR-L 105; first compound 0.5 µM", "value": 0.415},
      {"measurement": "relative viability", "setting": "PC-14; first compound 0.005 µM", "value": 0.528},
      {"measurement": "relative viability", "setting": "PC-14; first compound 0.01581 µM", "value": 0.538},
      {"measurement": "relative viability", "setting": "PC-14; first compound 0.05 µM", "value": 0.549},
      {"measurement": "relative viability", "setting": "PC-14; first compound 0.1581 µM", "value": 0.54},
      {"measurement": "relative viability", "setting": "PC-14; first compound 0.5 µM", "value": 0.394},
      {"measurement": "relative viability", "setting": "NCI-H661; first compound 0.005 µM", "value": 0.401},
      {"measurement": "relative viability", "setting": "NCI-H661; first compound 0.01581 µM", "value": 0.387},
      {"measurement": "relative viability", "setting": "NCI-H661; first compound 0.05 µM", "value": 0.422},
      {"measurement": "relative viability", "setting": "NCI-H661; first compound 0.1581 µM", "value": 0.409},
      {"measurement": "relative viability", "setting": "NCI-H661; first compound 0.5 µM", "value": 0.387},
      {"measurement": "relative viability", "setting": "LK-2; first compound 0.005 µM", "value": 0.664},
      {"measurement": "relative viability", "setting": "LK-2; first compound 0.01581 µM", "value": 0.674},
      {"measurement": "relative viability", "setting": "LK-2; first compound 0.05 µM", "value": 0.503},
      {"measurement": "relative viability", "setting": "LK-2; first compound 0.1581 µM", "value": 0.875},
      {"measurement": "relative viability", "setting": "LK-2; first compound 0.5 µM", "value": 0.742},
      {"measurement": "relative viability", "setting": "HCC-366; first compound 0.005 µM", "value": 0.394},
      {"measurement": "relative viability", "setting": "HCC-366; first compound 0.01581 µM", "value": 0.422},
      {"measurement": "relative viability", "setting": "HCC-366; first compound 0.05 µM", "value": 0.362},
      {"measurement": "relative viability", "setting": "HCC-366; first compound 0.1581 µM", "value": 0.343},
      {"measurement": "relative viability", "setting": "HCC-366; first compound 0.5 µM", "value": 0.322},
      {"measurement": "relative viability", "setting": "NCI-H3122; first compound 0.005 µM", "value": 0.164},
      {"measurement": "relative viability", "setting": "NCI-H3122; first compound 0.01581 µM", "value": 0.207},
      {"measurement": "relative viability", "setting": "NCI-H3122; first compound 0.05 µM", "value": 0.187},
      {"measurement": "relative viability", "setting": "NCI-H3122; first compound 0.1581 µM", "value": 0.212},
      {"measurement": "relative viability", "setting": "NCI-H3122; first compound 0.5 µM", "value": 0.184},
      {"measurement": "relative viability", "setting": "NCI-H1666; first compound 0.005 µM", "value": 0.628},
      {"measurement": "relative viability", "setting": "NCI-H1666; first compound 0.01581 µM", "value": 0.666},
      {"measurement": "relative viability", "setting": "NCI-H1666; first compound 0.05 µM", "value": 0.639},
      {"measurement": "relative viability", "setting": "NCI-H1666; first compound 0.1581 µM", "value": 0.668}
    ]}
  ]
}
